“And” between values parts separate entries of the source, which are not always exact repeats. Equal values may be shown once.
Columns and labels:
[1] = test system: IMQ-induced psoriasis mouse model; experiment: IMQ-induced psoriasis mouse model (PASI scoring); assay type: in vivo, Balb/c mice; parameters: key to skin thickening in psoriasis mice (score) / skin redness in psoriasis mice (score) / skin scaling in psoriasis mice (score): 0 = none to 4 = very severe, per sign; conditions: 284-30 (30 mpk PO QD)
Procedure: Method: This experiment used a total of 19 mice. A natural skin observation control (n=1). 2 cm^2 of hair was shaved off the backs of […] on day 0, the stubble was removed with a mild depilatory cream, and the original skin was photographed. 62.5 mg of IMQ was applied to each of the mice. There was a mock group (n=6), a DEX (3 mg/kg, PO., qD) group (n=6), and a GEN1-284s (30 mg/kg, PO, qD) group (n=6). On the day of modeling, administration was performed in a volume of 100 μL/20 g body weight 4 h after IMQ application. The PASI scoring method was used to score the erythema, swelling and scaling on the skin of the mice. The experiment took a total of 6 days. The first day was set to day 0. IMQ application and administration were not performed on day 5. The mice were sacrificed with carbon dioxide at the end of the experiment.
The test animals were anesthetized with isoflurane. 2 cm^2 of hair was shaved off the backs of the mice, and the stubble was removed with a depilatory cream. IMQ application was performed for a total of 5 days, from day 0 to day 4. Scoring and IMQ application were performed every morning. Administration was performed in the afternoon
Desquamation (D): means epidermal cells flake off. The severity scores of skin lesions were as follows: • 0=none; this sign cannot be confirmed by careful observation • 1=mild; this sign can be confirmed but careful observation is required • 2=moderate; this sign is more visible and can be confirmed immediately • 3=severe; this sign is marked. • 4=very severe; this sign is very marked.
Induration I: 0—skin lesions are at the same level as normal skin; • 1—skin lesions are at slightly higher levels than normal skin surface; • 2—lesions moderately stick out and have round or slope-shaped borders; • 3—skin lesions are thick and markedly stick out; • 4—skin lesions are very thick and very markedly stick out.
Erythema E: • 0—no visible erythema; • 1—light red; • 2—red; • 3—dark red; • 4—the red is very dark

[2] = test system: Apoe KO mouse atherosclerosis model; experiment: Atherosclerosis model (Apoe KO mice, high-fat diet): blood lipid tests TCHO, TG, LDL-C, HDL-C; assay type: in vivo, C57BL/6 Apoe KO mice; parameters: blood lipids (CHO) in Apo E−/− mice / blood lipids (TG) in Apo E−/− mice / blood lipids (HDL-C) in Apo E−/− mice / blood lipids (LDL-C) in Apo E−/− mice: unit not given here; conditions: HFD + 284-60 mpk
Procedure: (§1) Method: Apoe KO mice were tested for basal blood lipid levels and divided into a normal control group and a high-fat group. After 8 weeks of housing, the mice from the high-fat group were divided into 4 groups of about 8: a normal diet group (Chow), a high-fat diet model group (HFD), an Atorvastatin positive group (HFD+atorvastatin 5 mpk, QD), and a GEN1-284s group (284-60 mpk, QD). Oral administration was performed for 8 consecutive weeks, and the effect of the compound on the following indicators in Apoe KO mice was observed: 4 blood lipid tests (TC, TG, HDL-C and LDL-C), aortic plaque En-face staining, and pathological oil red staining of the cardiac outflow tract.
(§2) Mice from the groups except for the normal diet control group (Chow) were fed with high-fat feed every day for […]. From week 9, each group was orally administered solvent or a corresponding test compound, and body weight data were recorded every day for 8 consecutive weeks. After the first 8 weeks' high-fat diet, blood samples were taken and centrifuged to separate serum, and the serum was tested for blood lipid levels (TCHO, TG, LDL-C and HDL-C). The mice were randomly grouped according to the TCHO results and body weight. During the subsequent 8 weeks of administration, blood lipid tests (TCHO, TG, LDL-C and HDL-C) were run once every 4 weeks.
Mice were fasted overnight, and blood (150 μL) was collected via mandibular blood sampling or eye ball removal (for endpoint only) and left at room temperature for 2 h. The blood was centrifuged at 4° C. at 7000 rpm for 10 min, and serum was pipetted, quick-frozen in dry ice and then stored at −80° C. before analysis. The serum was tested for the biochemical indicators TCHO, TG, LDL-C and HDL-C using kits and a microplate reader.

[3] = test system: Apoe KO mouse atherosclerosis model; experiment: Atherosclerosis model: aortic plaque En-face staining and plaque area; assay type: in vivo, C57BL/6 Apoe KO mice; conditions: HFD + 284-60 mpk, PO QD 8 W, individual mice; in % (unit assumed)
Procedure: as §1, §2
At the end of the experiment, the mice were euthanized by CO2 inhalation, and their hearts and aortas (from the aortic arch to the iliac artery) were isolated. The isolated artery was dissected longitudinally from the aortic arch to the iliac artery, fixed in 4% paraformaldehyde for 30 min, synchronized with 60% isopropanol for 10 min, then stained in 60% oil red for 30 min, and then washed with 60% isopropanol 3 times for 5 min each time. Finally, the stained aorta was washed with deionized water and photographed. The proportion of red plaque areas was measured using Image Pro Plus 6.0 (Media Cybernetics, MD, US).

[4] = test system: Apoe KO mouse atherosclerosis model; experiment: Atherosclerosis model: plaques in the cardiac (left ventricular) outflow tract; assay type: in vivo, C57BL/6 Apoe KO mice; conditions: HFD + 284-60 mpk, PO QD 8 W, individual mice; in %
Procedure: as §1, §2
Mouse heart samples were fixed overnight in 4% paraformaldehyde solution and dehydrated in sucrose solution. Then, the samples were embedded with OCT (Sakura, Japan) under a stereo microscope and made into 10 μm frozen sections. The sections were stained with oil red ORO and then subjected to routine pathological examinations. Images of the outflow tract were acquired under an optical microscope at 4× magnification, and high-quality morphological observations were carried out using an eyepiece with 20× magnification. The percentage of intimal lesions in the cardiac outflow tract was calculated. The detection criteria followed the criteria for histological classification of human atherosclerotic disease, which are described in detail below:
The area of plaques in the left ventricular outflow tract was measured using a microscope, and the proportion of plaques in the left ventricular outflow tract was calculated; this value reflects the degree of stenosis in the cardiac outflow tract vessel.

[5] = DAY 1, individual mice, 30 mg/kg
[6] = DAY 2, individual mice, 30 mg/kg
[7] = DAY 3, individual mice, 30 mg/kg
[8] = DAY 4, individual mice, 30 mg/kg
[9] = DAY 5, individual mice, 30 mg/kg

## O=C(Cc1ccc2ncccc2c1)N1CCC(n2c(=O)n(COP(=O)(O)O)c3cccc(C(F)(F)F)c32)CC1 [Compound 284]
[1]; DAY 0, individual mice
  overall effect on the skin of psoriasis mice (score): 0
  skin redness in psoriasis mice (score): 0
  skin scaling in psoriasis mice (score): 0
  skin thickening in psoriasis mice (score): 0
[1]; [5]
  overall effect on the skin of psoriasis mice (score): 1.667 and 1.167 and 1 and 2.333 and 2 and 0.6667
  skin redness in psoriasis mice (score): 1 and 0.6667 and 0.8333 and 0.5 and 1.167 and 0
  skin scaling in psoriasis mice (score): 0.1667 (3×) and 0 and 0.8333 and 0.3333
  skin thickening in psoriasis mice (score): 0.5 (4×) and 0 and 1
[1]; [6]
  overall effect on the skin of psoriasis mice (score): 1.5 (2×) and 2 and 1.333 and 2.333 (2×)
  skin redness in psoriasis mice (score): 0.8333 and 1 and 0.5 (2×) and 0.3333 and 0.1667
  skin scaling in psoriasis mice (score): 0.1667 and 0.5 and 0.3333 and 0.8333 (2×) and 1
  skin thickening in psoriasis mice (score): 0.5 (4×) and 1 (2×)
[1]; [7]
  overall effect on the skin of psoriasis mice (score): 3.333 (3×) and 2.333 and 2.5 and 2.167
  skin redness in psoriasis mice (score): 1 (2×) and 0.8333 (2×) and 0.6667 and 0.5
  skin scaling in psoriasis mice (score): 0.8333 and 0.5 and 1.833 and 0.6667 (2×) and 1.167
  skin thickening in psoriasis mice (score): 1.5 (2×) and 1 (3×) and 0.5
[1]; [8]
  overall effect on the skin of psoriasis mice (score): 2.667 and 3.667 (2×) and 2.833 (2×) and 3
  skin redness in psoriasis mice (score): 1.333 and 1 (2×) and 0.6667 and 1.167 and 0.8333
  skin scaling in psoriasis mice (score): 1.333 and 1.667 and 1.167 and 1 and 1.5 (2×)
  skin thickening in psoriasis mice (score): 0 and 1 (4×) and 0.5
[1]; [9]
  overall effect on the skin of psoriasis mice (score): 3 (2×) and 2.667 and 4.333 and 3.5 (2×)
  skin redness in psoriasis mice (score): 1.5 and 0.6667 (3×) and 1 and 0.5
  skin scaling in psoriasis mice (score): 1.5 and 1 and 2.333 and 1.333 and 1.833 and 2.5
  skin thickening in psoriasis mice (score): 0 and 1 (4×) and 0.5
[2]; Time 1, individual mice
  blood lipids (CHO) in Apo E−/− mice: 0.7986 and 0.8043 and 0.8562 and 0.7873 and 0.8278 and 1.372 and 1.184
  blood lipids (HDL-C) in Apo E−/− mice: 1.371 and 0.5315 and 1.057 and 0.9966 and 1.123 and 1.022 and 1.153
  blood lipids (LDL-C) in Apo E−/− mice: 0.6872 and 1.011 and 0.7654 and 0.5196 and 0.7151 and 1.05 and 1.587
  blood lipids (TG) in Apo E−/− mice: 0.4337 and 0.6308 and 0.6265 and 0.755 and 0.7465 and 0.995 and 1.031
[2]; Time 2, individual mice
  blood lipids (CHO) in Apo E−/− mice: 1.233 and 0.8693 and 1.165 and 0.9214 and 0.6106 and 1.043 and 0.9931 and 1.18
  blood lipids (HDL-C) in Apo E−/− mice: 2.122 and 0.9935 and 0.9789 and 1.033 and 0.8106 and 1.037 and 1.827 and 1.565
  blood lipids (LDL-C) in Apo E−/− mice: 1.374 and 0.6809 and 2.129 and 1.097 and 0.9183 and 1.393 and 1.144 and 0.9377
  blood lipids (TG) in Apo E−/− mice: 1.051 (2×) and 0.7809 and 1.131 and 1.303 and 1.009 and 1.451 and 1.117
[2]; Time 3, individual mice
  blood lipids (CHO) in Apo E−/− mice: 1.388 and 0.8444 and 1.354 and 0.78 and 1.427 and 1.407 and 1.241 and 1.477
  blood lipids (HDL-C) in Apo E−/− mice: 2.24 and 0.5362 and 0.9059 and 0.8576 and 1.163 and 1.018 (2×) and 1.067
  blood lipids (LDL-C) in Apo E−/− mice: 1.218 and 0.622 and 1.641 and 0.9017 and 1.494 and 1.215 and 2.628 and 1.406
  blood lipids (TG) in Apo E−/− mice: 0.8373 and 0.8015 and 1.448 and 0.7657 and 0.9226 and 1.222 and 1.943 and 1.2
[2]; Time 4, individual mice
  blood lipids (CHO) in Apo E−/− mice: 1.59 and 1.257 and 1.396 and 0.4939 and 0.5475 and 1.048 and 1.029 and 1.174
  blood lipids (HDL-C) in Apo E−/− mice: 1.04 and 0.5331 and 1.239 and 0.8199 and 0.5772 and 0.511 and 0.5552 and 1.57
  blood lipids (LDL-C) in Apo E−/− mice: 1.177 and 0.9355 and 0.8511 and 0.1725 and 0.4792 and 1.162 and 1.093 and 0.5061
  blood lipids (TG) in Apo E−/− mice: 1.059 and 0.6674 and 1.093 and 0.7289 and 1.028 and 0.7597 and 1.227 and 1.278
[3]
  atherosclerotic plaques in mice (proportion of arterial plaque area): 14.51 and 15.36 and 6.043 and 8.803 and 8.747 and 3.497 and 13.32 and 11.93
[4]
  plaques in the cardiac outflow tracts of mice (proportion of plaques in the left ventricular outflow tract): 3.172 and 8.444 and 8.652 and 1.278 and 0.625 and 2.394 and 7.368

Reference: patent US20240391940A1, “FUSED RING-CONTAINING COMPOUND, APPLICATION THEREOF, AND COMPOSITION CONTAINING SAME” (GenEros Biopharma Ltd., priority 2020, published 2024)
